According to patent US7238716B2, “Alkanoic acid derivatives process for their production and use thereof” (Takeda Pharmaceuticals Company Limited, priority 2000, dated 2007):
Where two headings read alike, the source gives them in different places.

Experiments:
KKAY mice = experiment: Hypoglycemic and hypolipidemic actions in mice (Test Example 1); type: in vivo; settings: Mus musculus, po, 96 h, 0.005% in powdery diet, four days
Text: Test compounds were mixed in a powdery diet (CE-2, Japan Clea) at the concentration of 0.01% (compounds of Examples 7, 26, 29, 32) or 0.005% (compounds of Examples 1, 11, 15, 18, 24, 36, 37, 41, 48, 50, 51, 52, 58, 62, 79, 83, 88, 90, 91, 92, 93, 97, 107, 110, 115, 119, 122, 125, 129 and 130), and freely given to KKAY mice (11 to 12 weeks old, 5 mice in a group), a model of type 2 diabetes mellitus, for four days. During this period, water was given freely. Blood was sampled from orbital venous plexus, and glucose and triglyceride levels in plasma separated from blood were determined enzymatically using L type Wako Glu2 (Wako Pure Chemical Industries, Ltd.) or L type Wako TG.H (Wako Pure Chemical Industries, Ltd.), respectively.
In the Table, “hypoglycemic action (%)” means a percent reduction (%) of the glucose level in the test compound administration group when that of the test compound non-administration group is taken as 100%. In addition, the “hypolipidemic action (%)” means a percent reduction (%) of the triglyceride level in the test compound administration group when that of the test compound non-administration group is taken as 100%.

PPARγ-RXRα heterodimer = biological target: T1, PPARγ-RXRα heterodimer (Homo sapiens, UniProt P37231); experiment: PPARγ-RXRα heterodimer ligand activity, luciferase reporter in PPARγ:RXRα:4ERPP/CHO-K1 cells (Test Example 3); type: cell-based; settings: concentration for 50% of the maximum fold induction of luciferase activity; 48 hours, CHO-K1 cells
T1 construct: expressed in transfected cells; host or cells: CHO-K1
T1 sequence (P37231 1-477 isoform P37231-2): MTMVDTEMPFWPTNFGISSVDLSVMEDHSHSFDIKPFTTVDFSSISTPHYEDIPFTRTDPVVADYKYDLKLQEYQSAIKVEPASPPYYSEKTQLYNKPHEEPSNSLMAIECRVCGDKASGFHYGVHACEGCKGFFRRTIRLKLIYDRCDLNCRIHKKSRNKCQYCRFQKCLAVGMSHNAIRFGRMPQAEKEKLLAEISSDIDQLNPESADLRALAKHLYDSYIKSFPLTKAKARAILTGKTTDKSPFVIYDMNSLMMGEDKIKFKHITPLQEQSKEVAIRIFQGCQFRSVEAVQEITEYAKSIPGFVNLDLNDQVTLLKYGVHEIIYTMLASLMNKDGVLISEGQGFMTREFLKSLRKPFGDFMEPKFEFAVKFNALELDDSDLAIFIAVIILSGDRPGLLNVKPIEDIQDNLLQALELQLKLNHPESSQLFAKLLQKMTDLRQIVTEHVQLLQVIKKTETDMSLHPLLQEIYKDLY
T1 sequence (P19793 1-462 partner): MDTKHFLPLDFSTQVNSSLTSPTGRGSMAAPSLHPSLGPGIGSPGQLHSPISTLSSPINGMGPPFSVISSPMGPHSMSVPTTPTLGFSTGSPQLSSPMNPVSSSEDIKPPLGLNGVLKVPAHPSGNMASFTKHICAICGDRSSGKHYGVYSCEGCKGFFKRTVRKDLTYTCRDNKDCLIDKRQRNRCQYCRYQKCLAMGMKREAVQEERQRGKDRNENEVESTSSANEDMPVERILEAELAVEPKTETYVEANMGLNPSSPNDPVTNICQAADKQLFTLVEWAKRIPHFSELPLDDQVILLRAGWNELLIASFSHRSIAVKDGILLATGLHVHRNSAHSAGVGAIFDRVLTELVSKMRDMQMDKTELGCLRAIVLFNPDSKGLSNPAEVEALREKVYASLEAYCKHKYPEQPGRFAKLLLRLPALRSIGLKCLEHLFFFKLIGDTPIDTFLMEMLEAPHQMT
Procedure: A PPARγ:RXRα:4ERPP/CHO-K1 cells obtained in Reference Example 5 described later were cultured in HAM F12 medium (produced by NISSUI SEIYAKU) containing 10% Fetal bovine serum (produced by Life Technologies, Inc., USA) and then inoculated to a 96-well white plate (produced by Corning Costar Corporation, USA) at the density of 2×10^4 cells/well, and cultured in a CO2 gas incubator at 37° C. overnight.
After washing the 96 well white plate with PBS (Phosphate-buffered saline), 90 μl of HAM F12 medium containing 0.1% fatty acid-free bovine serum albumin (BSA) and 10 μl of test compound were added, which was cultured in a CO2 gas incubator at 37° C. for 48 hours. After removing the medium, 40 μl of PIKKAGENE 7.5 (produced by Wako Pure Chemical Industries, Ltd.) was added. After stirring, the luciferase activity was determined using Lumistar (produced by BMG Labtechnologies GmbH, Germany).
A fold induction was calculated based on the luciferase activity of each test compound by taking the luciferase activity in the test compound non administration group as 1. The values of the test compound, concentration and the fold induction were analyzed using PRISM 2.01 (produced by GraphPad Software Inc. USA) to calculate the EC50 values, the effective concentration of a test compound for 50% of the maximum fold induction.
After a CHO-K1 cell cultured in a 750 ml tissue culture flask (produced by Corning-Costar Corporation, USA) containing HAM F12 medium (produced by NISSUI SEIYAKU) supplemented with 10% Fetal Bovine Serum (produced by Life Technologies, Inc., USA) was scraped by treating with 0.5 g/L trypsin-0.2 g/L EDTA (ethylenediaminetetraacetic acid) (produced by Life Technologies, Inc., USA), the cell was washed with PBS (phosphate buffered saline) (produced by Life Technologies, Inc., USA), centrifuged (1000 rpm, 5 minutes), and then suspended in PBS. Subsequently, a DNA was introduced into the cell under the condition shown below using GENE PULSER (produced by Bio-Rad Laboratories, USA).
Namely, to a cuvette having a 0.4 cm gap, added were 8×10^6 cells and 10 μg of plasmid pVgRXR2-hPPARγ obtained in Reference Example 3 and 10 μg of reporter plasmid pGL3-4ERPP-TK neo obtained in Reference Example 4, which was subjected to electroporation at the voltage of 0.25 kV under the capacitance of 960 μF. Subsequently, the cell was transferred into a HAM F12 medium containing 10% Fetal Bovine. Serum and cultured for 24 hours. Then the cell was scraped again and centrifuged, and then suspended in HAM F12 medium containing 10% Fetal Bovine Serum supplemented with 500 μg/ml of GENETICIN (produced by Life Technologies, Inc., USA) and 250 μg/ml of ZEOCIN (produced by Invitrogen, USA). The suspension was diluted to the density of 10^4 cells/ml, and inoculated to a 96-well plate (produced by Corning Costar Corporation, USA), which was cultured in a CO2 gas incubator at 37° C., whereby obtaining a GENETICIN- and ZEOCIN-resistant transformant.
Subsequently, after the transformant cell line thus obtained was cultured in a 24-well plate (produced by Corning Costar Corporation, USA), selected was a cell line, PPARγ:RXRα:4ERPP/CHO-K1 cell, in which the luciferase was expressed and induced by addition of 10 μM pioglitazone hydrochloride.

Cc1oc(-c2ccccc2)nc1COc1ccc(OCc2ncccc2CC(=O)O)cc1 [Example 125, 2-[2-[[4-[(5-methyl-2-phenyl-4-oxazolyl)methoxy]phenoxy]methyl]-3-pyridyl]acetic acid]
inhibition in vivo at 0.005 % (KKAY mice; percent reduction of plasma glucose level vs non-administration group, read-out: hypoglycemic action (%)): 41%
inhibition in vivo at 0.005 % (KKAY mice; percent reduction of plasma triglyceride level vs non-administration group, read-out: hypolipidemic action (%)): 40%
melting point: 126 to 127 °C
EC50 (PPARγ-RXRα heterodimer): 130 nM
